Test [1] deals with HIV-1 (H9IIIB strain). The test can be described thus: Antiviral acute infection assay in cell culture (Spread). It counts as cell-based. As to conditions: HIV-1 H9IIIB infection of MT-4 human T-lymphoid cells in 10% FBS, mean of at least two independent experiments. The text has this: Antiviral Assays in Cell Culture (“Spread”)
Acute Infection Assay (“Spread”) data were generated using HIV-1 (H9IIIB strain) infection of MT-4 human T-lymphoid cells in 10% FBS, and according to the methods disclosed by J. P. Vacca et al, “L-735,524: An orally bioavailable human immunodeficiency virus type 1 protease inhibitor,” Proc. Natl. Acad. Sci. USA, Vol. 91, pp. 4096-4100 (April 1994).

In test [2] the target is T1, wildtype HIV-1 protease (Human immunodeficiency virus type 1 group M subtype B, UniProt P04585).
T1 construct: the wildtype HIV-1 protease (which was expressed in Escherichia coli); made in house; host or cells: Escherichia coli
The experiment in a line: Assay for inhibition of microbial expressed HIV protease (Pepcleav). It counts as biochemical. As to conditions: wild type HIV-1 protease expressed in E. coli, peptide substrate, pH 5.5; mean of at least two independent experiments; read-out: Pepcleav. An outline of the steps:
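Cleavage of 400 μM peptide substrate Val-Ser-Gln-Asn-(βnaphthyl)Ala-Pro-Ile-Val by 20 pM wild-type enzyme (E. coli-expressed) ran 1 h at 30 °C after 30 min inhibitor preincubation, pH 5.5 acetate buffer. Inhibition derived from product peak area by C18 LC with multiple-reaction-monitoring MS after formic acid quench.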

Setting [3] is: Human immunodeficiency virus 1, T-lymphoid.

SMILES strings stand for the structures. pEC50, pIC50: −log10 of the molar value.

For `COc1ccc([C@@H](c2ccccc2)[C@H](N)C(=O)Nc2cncc(F)c2CC[C@@H]2CN[C@H](COC(=O)NCC(F)(F)F)CO2)cc1` [Example 256, (βR)-N-(5-fluoro-4-{2-[(2R,5S)-5-({[(2,2,2-trifluoroethyl)carbamoyl]oxy}methyl)morpholin-2-yl]ethyl}pyridin-3-yl)-O-methyl-β-phenyl-L-tyrosinamide], in test [1] (setting [3]), the pEC50 (in general, −log10 of the EC50, conventionally taken in molar units) is 7.00. Moreover, the pIC50 in test [2] is 8.24.

On to `NC(=O)OC[C@@H]1CO[C@H](CCc2c(F)cccc2NC(=O)C[C@@H](c2ccc(F)cc2)c2ccc(F)cc2F)CN1` [Example 156, {(3S,6R)-6-[2-(2-{[(3S)-3-(2,4-difluorophenyl)-3-(4-fluorophenyl)propanoyl]amino}-6-fluoro-phenyl)ethyl]morpholin-3-yl}methyl carbamate], for which the pEC50 in test [1] (setting [3]) was 7.59. In test [2], the pIC50 is 8.00.

Regarding `N[C@H](C(=O)Nc1c(Cl)cccc1OC[C@@H]1CN[C@H](COC(=O)NCC(F)(F)F)CO1)C(c1ccc(F)cc1)c1ccc(F)cc1` [Example 261, N-(2-chloro-6-{[(2S,5S)-5-({[(2,2,2-trifluoroethyl)carbamoyl]oxy}methyl)morpholin-2-yl]methoxy}phenyl)-4-fluoro-β-(4-fluorophenyl)-L-phenylalaninamide], the pEC50 in test [1] was 6.77. Moreover, in test [2], the pIC50 was 8.37.

For `N[C@H](C(=O)Nc1cncc(F)c1CC[C@@H]1CN[C@H](COC(=O)NCC(F)(F)F)CO1)[C@H](c1ccc(F)cc1)c1ccc2ccccc2c1` [Example 96, (βR)-4-Fluoro-N-(5-fluoro-4-{2-[(2R,5S)-5-({[(2,2,2-trifluoroethyl)carbamoyl]oxy}methyl)morpholin-2-yl]ethyl}pyridin-3-yl)-β-naphthalen-2-yl-L-phenylalaninamide], the pEC50 in test [1] (setting [3]) is 7.14. Besides, in test [2], the pIC50 was 8.00.

Compound `N[C@H](C(=O)Nc1cncc(F)c1CC[C@@H]1CN[C@H](COC(=O)NCC(F)(F)F)CO1)[C@@H](c1ccc(F)cc1)c1ccc(F)c(F)c1` [Example 265, (βS)-3,4-difluoro-β-(4-fluorophenyl)-N-(5-fluoro-4-{2-[(2R,5S)-5-({[(2,2,2-trifluoroethyl)carbamoyl]oxy}methyl)morpholin-2-yl]ethyl}pyridin-3-yl)-L-phenylalaninamide] showed a pEC50 in test [1] (setting [3]) of 7.44. Besides, the pIC50 in test [2] is 8.51.

Take `COC(=O)N[C@H](C(=O)Nc1cncc(F)c1CC[C@@H]1CN[C@H](COC(=O)NCC(F)(F)F)CO1)[C@H](c1ccc(F)cc1)c1cccc(F)c1` [Example 282, (βR)-4-fluoro-β-(3-fluorophenyl)-N-(5-fluoro-4-{2-[(2R,5S)-5-({[(2,2,2-trifluoroethyl)carbamoyl]oxy}methyl)morpholin-2-yl]ethyl}pyridin-3-yl)-Nα-(methoxycarbonyl)-L-phenylalaninamide]: in test [1] (setting [3]), the negative logarithm of the EC50 (pEC50) was 7.60. Also, the pIC50 in test [2] is 8.43.

Take `O=C(C[C@H](c1ccc(F)cc1)c1ccc(Cl)cc1)Nc1cccc(F)c1CC[C@@H]1CN[C@H](COC(=O)NCC(F)(F)F)CO1` [Example 154, {(3S,6R)-6-[2-(2-{[(3R)-3-(4-chlorophenyl)-3-(4-fluorophenyl)propanoyl]amino}-6-fluoro-phenyl)ethyl]morpholin-3-yl}methyl (2,2,2-trifluoroethyl)carbamate]: in test [1] (setting [3]), the pEC50 was 6.82. For the same compound, in test [2], the pIC50 was 8.29.

On to `N[C@H](C(=O)Nc1cccc(F)c1OC[C@@H]1CN[C@H](COC(=O)NCC(F)(F)F)CO1)C(c1ccc(F)cc1)c1ccc(F)cc1` [Example 82, ((3S,6S)-6-((2-((S)-2-amino-3,3-bis(4-fluorophenyl)propanamido)-6-fluorophenoxy)methyl)morpholin-3-yl)methyl (2,2,2-trifluoroethyl)carbamate], for which, in test [1] (setting [3]), the pEC50 is 7.40. Besides, the pIC50 in test [2] is 7.96.

The values above are taken from patent publication US9315475B2 (MERCK SHARP & DOHME CORP., priority 2011, dated 2016).
